Assay results published in patent US20250100996A1, “HETEROCYCLOALKYL AND HETEROARYL COMPOUNDS AND PHARMACEUTICAL COMPOSITIONS THAT MODULATE IKZF2” (Plexium, Inc., priority 2021, published 2025).

Assays:
[1] = target: T1, IKZF3 (Aiolos) (Homo sapiens, UniProt Q9UKT9); test: IKZF3 reporter degradation assay (HEK 293T IKZF3-mNeonGreen reporter cell line); type: cell-based; conditions: HEK 293T IKZF3-mNeonGreen reporter, 24 hours incubation; for inhibition at 1 µM: HEK-293T, 24 h
T1 construct: Leu-Asp junction (codons ctcgac before the linker); mScarlet (behind P2A) (C, cleaved yes); expressed in transfected cells
T1 sequence (Q96SW2 whole entry partner): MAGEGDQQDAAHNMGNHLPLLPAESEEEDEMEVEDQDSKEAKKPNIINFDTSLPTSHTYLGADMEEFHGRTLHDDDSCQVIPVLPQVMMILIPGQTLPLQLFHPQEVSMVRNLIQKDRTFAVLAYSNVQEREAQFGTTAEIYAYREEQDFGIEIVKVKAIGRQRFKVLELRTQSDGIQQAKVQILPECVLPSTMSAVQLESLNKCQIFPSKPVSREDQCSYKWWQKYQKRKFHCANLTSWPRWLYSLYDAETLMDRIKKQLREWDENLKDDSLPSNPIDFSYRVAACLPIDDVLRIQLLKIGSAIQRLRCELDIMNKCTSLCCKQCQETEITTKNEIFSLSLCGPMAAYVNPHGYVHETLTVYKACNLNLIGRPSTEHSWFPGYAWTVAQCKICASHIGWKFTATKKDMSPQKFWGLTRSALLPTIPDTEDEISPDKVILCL
T1 sequence (Q16531 whole entry partner): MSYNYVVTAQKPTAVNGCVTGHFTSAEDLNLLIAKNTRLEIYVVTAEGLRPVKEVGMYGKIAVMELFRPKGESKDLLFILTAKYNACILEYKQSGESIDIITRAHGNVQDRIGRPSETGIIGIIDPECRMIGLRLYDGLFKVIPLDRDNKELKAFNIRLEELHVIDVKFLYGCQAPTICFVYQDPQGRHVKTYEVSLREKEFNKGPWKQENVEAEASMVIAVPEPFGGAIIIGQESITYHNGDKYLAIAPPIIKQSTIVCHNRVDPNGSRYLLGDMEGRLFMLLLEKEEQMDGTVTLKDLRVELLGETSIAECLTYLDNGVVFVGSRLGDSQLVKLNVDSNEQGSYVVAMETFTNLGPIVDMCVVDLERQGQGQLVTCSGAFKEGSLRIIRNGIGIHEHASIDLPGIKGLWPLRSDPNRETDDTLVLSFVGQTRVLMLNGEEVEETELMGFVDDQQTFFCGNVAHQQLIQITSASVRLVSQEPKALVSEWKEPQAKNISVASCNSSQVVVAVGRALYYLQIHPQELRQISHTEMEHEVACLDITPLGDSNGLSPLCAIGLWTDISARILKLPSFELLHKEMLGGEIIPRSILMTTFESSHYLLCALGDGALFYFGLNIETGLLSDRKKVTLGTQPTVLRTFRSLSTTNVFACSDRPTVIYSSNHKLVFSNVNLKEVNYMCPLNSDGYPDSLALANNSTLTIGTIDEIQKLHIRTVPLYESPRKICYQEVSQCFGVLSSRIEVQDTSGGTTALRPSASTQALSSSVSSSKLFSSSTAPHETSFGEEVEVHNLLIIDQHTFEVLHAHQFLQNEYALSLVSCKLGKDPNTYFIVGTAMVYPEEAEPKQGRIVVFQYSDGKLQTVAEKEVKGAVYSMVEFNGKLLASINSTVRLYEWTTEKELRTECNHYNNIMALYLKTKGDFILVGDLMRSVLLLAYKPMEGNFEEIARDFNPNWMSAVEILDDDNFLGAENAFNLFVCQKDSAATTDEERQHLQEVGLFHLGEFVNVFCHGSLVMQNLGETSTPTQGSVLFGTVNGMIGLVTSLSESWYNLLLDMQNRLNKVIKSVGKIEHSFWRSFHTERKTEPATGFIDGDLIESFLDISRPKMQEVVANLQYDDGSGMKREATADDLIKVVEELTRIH
T1 sequence (Q9UKT9 whole entry): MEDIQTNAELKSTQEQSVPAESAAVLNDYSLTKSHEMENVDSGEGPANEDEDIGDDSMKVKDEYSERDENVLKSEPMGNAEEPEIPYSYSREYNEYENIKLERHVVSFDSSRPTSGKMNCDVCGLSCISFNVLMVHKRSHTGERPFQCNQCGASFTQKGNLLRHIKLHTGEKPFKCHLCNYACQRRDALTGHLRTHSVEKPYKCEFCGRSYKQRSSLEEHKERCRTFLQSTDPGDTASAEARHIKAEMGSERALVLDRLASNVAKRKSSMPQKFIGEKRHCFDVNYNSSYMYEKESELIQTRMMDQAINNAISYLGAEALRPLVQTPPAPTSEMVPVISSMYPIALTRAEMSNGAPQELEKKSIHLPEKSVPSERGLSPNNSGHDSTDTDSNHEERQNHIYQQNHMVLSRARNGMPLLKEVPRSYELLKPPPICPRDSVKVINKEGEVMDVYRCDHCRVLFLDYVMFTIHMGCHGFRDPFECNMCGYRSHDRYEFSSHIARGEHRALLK
From the text: Polycistronic plasmids were constructed for the mammalian expression of fluorescent reporter fusions of human transcription factors IKZF1 (Ikaros), IKZF2 (Helios), and IKZF3 (Aiolos). The respective protein sequences had their C-terminal end joined to a GGGGS linker repeated three times followed by mNeonGreen, P2A sequence, and mScarlet. The DNA sequences of the open reading frames are as follows:
IKZF1, IKZF2, and IKZF3 constructs were cloned into the UCOE Hygromycin expression vectors (Millipore Sigma). Reporter constructs were transfected using cationic lipid reagents into adherent HEK 293T cells and stable integrants were selected by treatment with 200 μg/mL hygromycin B. Clonal populations were obtained from the population of stable integrants either by limiting dilution or fluorescence activated cell sorting.
The clonal stable cell lines were maintained under constant 200 μg/mL hygromycin B selection while being passaged for use in the degradation assays. […] The fluorescence intensity of the IKZF1/2/3-mNeonGreen (FITC channel) and mScarlet (PE channel) reporters were routinely analyzed by flow cytometry to confirm consistent expression levels between experiments.
The IKZF1/IKZF2/IKZF3 degradation assays were carried out by harvesting the HEK 293T reporter cell lines and resuspending the cells in media formulated for reduced background fluorescence (FluoroBrite; Thermo Fisher). The respective cell lines were seeded at a density of 4000 cells/well into black-walled 384-well optical grade assay tissue culture plates. The cells were incubated overnight at 37° C. to allow for attachment to the assay plate. Dilutions of the compounds were prepared in DMSO from 10 mM compound stocks. The assay plates were treated with appropriate concentrations of the compounds by dispensing the DMSO dilutions in quadruplicate wells with an upper limit of 0.5% final DMSO.
After 24 hours incubation with the compounds, the assay plates were imaged on an ImageXpress Pico microscopy system (cells maintained at 37° C. during imaging) to obtain the fluorescent readouts. The assay plates were imaged in the FITC and Tetramethylrhodamine (TRITC) channels to obtain the mNeonGreen fluorescence intensity (reporter degradation data) and mScarlet fluorescence intensity (for cell segmentation). 293T-IKZF1 and 293T-IKZF3 reporter cell lines were imaged with exposures of 500 milliseconds (ms) for both FITC and TRITC channels, while the 293T-IKZF2 reporter cell line was imaged with exposures of 1000 ms for FITC and 1250 ms for TRITC. The resulting data was analyzed with Cell Reporter Xpress software using the 2-channel cell scoring analysis with a “percent positive” readout. The TRITC channel was selected for the “nuclei” segmentation with a threshold of 20 while the FITC channel was selected for the “Marker 1” segmentation and a threshold of 100 for the IKZF1 and IKZF3 reporter lines. […] The minimum segmentation width was set to 6 micrometers and the maximum segmentation width was set to 15 micrometers for all cell lines. The DC50 calculations were determined by regression to best fit four-parameter logistic curves using GraphPad Prism.

[2] = target: T2, IKZF2 (Helios) (Homo sapiens, UniProt Q9UKS7); test: IKZF2 reporter degradation assay (HEK 293T IKZF2-mNeonGreen reporter cell line); type: cell-based; conditions: HEK 293T IKZF2-mNeonGreen reporter, 24 hours incubation
T2 construct: Leu-Asp junction (codons ctcgac before the linker); mScarlet (behind P2A) (C, cleaved yes); expressed in transfected cells
T2 sequence (Q9UKS7 whole entry): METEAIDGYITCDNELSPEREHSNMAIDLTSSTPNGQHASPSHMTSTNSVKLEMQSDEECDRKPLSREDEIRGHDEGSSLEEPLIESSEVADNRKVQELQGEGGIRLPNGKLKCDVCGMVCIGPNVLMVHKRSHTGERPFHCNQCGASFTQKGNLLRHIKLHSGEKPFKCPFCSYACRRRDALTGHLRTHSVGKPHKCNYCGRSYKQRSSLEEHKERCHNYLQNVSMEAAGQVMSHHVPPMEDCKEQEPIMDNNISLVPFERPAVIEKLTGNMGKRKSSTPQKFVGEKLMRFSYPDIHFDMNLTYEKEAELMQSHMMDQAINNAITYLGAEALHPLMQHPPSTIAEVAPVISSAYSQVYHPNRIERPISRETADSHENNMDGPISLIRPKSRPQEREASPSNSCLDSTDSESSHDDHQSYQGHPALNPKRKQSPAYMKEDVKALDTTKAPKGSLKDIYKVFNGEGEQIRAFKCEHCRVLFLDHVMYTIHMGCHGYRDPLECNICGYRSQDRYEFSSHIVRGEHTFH
T2 sequence (Q96SW2 whole entry, further chain): as the sequence (Q96SW2 whole entry partner) above
T2 sequence (Q16531 whole entry partner): as the sequence (Q16531 whole entry partner) above
Outline: (§1)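 Cells were seeded overnight and then dosed with DMSO dilutions of compound. After 24 h, the plates were imaged live in the FITC and TRITC channels. The fraction of reporter-positive cells was plotted and fitted to a four-parameter logistic curve to give DC50.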

[3] = target: T3, IKZF2 (Helios) (Homo sapiens, UniProt Q96SW2+Q9UKS7); test: as above; type: cell-based; conditions: @ 1 μM, HEK 293T IKZF2-mNeonGreen reporter, 24 hours incubation; for inhibition at 1 µM: HEK-293T, 24 h
T3 construct: Leu-Asp junction (codons ctcgac before the linker); mScarlet (behind P2A) (C, cleaved yes); expressed in transfected cells
T3 sequence (Q9UKS7 whole entry): as the sequence (Q9UKS7 whole entry) above
T3 sequence (Q96SW2 whole entry): as the sequence (Q96SW2 whole entry partner) above
T3 sequence (Q16531 whole entry partner): as the sequence (Q16531 whole entry partner) above
Outline: as §1

[4] = target: T4, human E3 ligase component cereblon (CRBN) (Homo sapiens, UniProt Q96SW2); test: Cereblon (CRBN) target engagement, NanoBRET TE Intracellular E3 Ligase Assay in transfected HEK-293T cells; conditions: read-out: CRBN Binding EC50
T4 construct: host or cells: HEK293T
T4 sequence (Q96SW2 whole entry): as the sequence (Q96SW2 whole entry partner) above
T4 sequence (Q16531 whole entry partner): as the sequence (Q16531 whole entry partner) above
Outline: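 Tracer displacement was read as the 610/450 nm BRET signal after 2 h at 37° C with an 11-point dilution series, typically 10 μM to 100 pM. Live HEK-293T cells expressed NanoLuc fused N-terminal to human CRBN together with DDB1. IC50 was fitted with a four-parameter logistic model.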

| Compound | DC50 [1] | DC50 [2] | inhibition at 1 µM [3] | EC50 [4] | IKZF2 % Degradation @ 1 μM [3] | inhibition at 1 µM ([1]; @ 1 μM) | IKZF3 % Degradation @ 1 μM ([1]; @ 1 μM) |
| --- | --- | --- | --- | --- | --- | --- | --- |
| O=C1CCC(N2Cc3cc(O[C@H]4CCCC[C@@H]4N4CC(c5ncncc5Cl)C4)ccc3C2=O)C(=O)N1 (single isomer, unassigned) [Compound 92-B] | > 30000 nM | 7 nM | 81.7% | 12 nM |  |  |  |
| O=C1CCC(N2Cc3cc(O[C@H]4CCCC[C@@H]4N4CC(c5ncncc5Cl)C4)ccc3C2=O)C(=O)N1 (single isomer, unassigned) [Compound 93-B] | > 30000 nM | 21 nM |  | 64 nM | 78% |  |  |
| O=C1CCC(N2Cc3cc(O[C@H]4CCCC[C@@H]4N4CC(c5ccncc5Cl)C4)ccc3C2=O)C(=O)N1 (single isomer, unassigned) [Compound 95-B] | > 30000 nM | 23 nM | 77.8% | 30 nM |  |  |  |
| O=C1CCC(N2Cc3cc(O[C@H]4CCCC[C@@H]4N4CC(c5ccc(Cl)cn5)C4)ccc3C2=O)C(=O)N1 (single isomer, unassigned) [Compound 99-B] | > 30000 nM | 6 nM | 81.3% | 4 nM |  |  |  |
| O=C1CCC(N2Cc3cc(O[C@H]4CCCC[C@@H]4N4CC(c5ccc(Cl)cn5)C4)ccc3C2=O)C(=O)N1 (single isomer, unassigned) [Compound 100-B] | > 30000 nM | 5 nM |  | 20 nM | 80.5% |  |  |
| O=C1CCC(N2Cc3cc(O[C@H]4CCCC[C@@H]4N4CC(c5ccncc5F)C4)ccc3C2=O)C(=O)N1 (single isomer, unassigned) [Compound 102-B] | > 30000 nM | 10 nM | 71.1% | 15 nM |  |  |  |
| O=C1CCC(N2Cc3cc(O[C@H]4CCCC[C@@H]4N4CC(c5ccncc5F)C4)ccc3C2=O)C(=O)N1 (single isomer, unassigned) [Compound 103-B] | > 30000 nM | 18 nM |  | 59 nM | 69.9% |  |  |
| O=C1CCC(N2Cc3cc(O[C@H]4CCCC[C@@H]4N4CC(c5ncc(Br)cn5)C4)ccc3C2=O)C(=O)N1 (single isomer, unassigned) [Compound 108-B] | > 30000 nM | 6 nM | 74.6% | 6 nM |  |  |  |
| O=C1CCC(N2Cc3cc(O[C@H]4CCCC[C@@H]4N4CC(c5ncc(Cl)cn5)C4)ccc3C2=O)C(=O)N1 (single isomer, unassigned) [Compound 111-B] | > 30000 nM | 4 nM | 76% | 7 nM |  |  |  |
| Cc1cnccc1C1CN([C@H]2CCCC[C@@H]2Oc2ccc3c(c2)CN(C2CCC(=O)NC2=O)C3=O)C1 (single isomer, unassigned) [Compound 112-B] | > 30000 nM | 12 nM | 67.1% | 20 nM |  |  |  |
| O=C1CCC(N2Cc3cc(O[C@H]4CCCC[C@@H]4N4CC(c5cncc(Cl)c5)C4)ccc3C2=O)C(=O)N1 (single isomer, unassigned) [Compound 116-B] | > 30000 nM | 4 nM | 73.7% | 6 nM |  |  |  |
| O=C1CCC(N2Cc3cc(O[C@H]4CCCC[C@@H]4N4CC(c5cncc(Cl)c5)C4)ccc3C2=O)C(=O)N1 (single isomer, unassigned) [Compound 117-B] | > 30000 nM | 25 nM |  | 21 nM | 68.4% |  |  |
| O=C1CCC(N2Cc3cc(O[C@H]4CCCC[C@@H]4N4CC(c5ncc(C(F)(F)F)cn5)C4)ccc3C2=O)C(=O)N1 (single isomer, unassigned) [Compound 120-B] | > 30000 nM | 4 nM | 69.9% | 5 nM |  |  |  |
| O=C1CCC(N2Cc3cc(O[C@H]4CCCC[C@@H]4N4CC(c5ncc(C(F)(F)F)cn5)C4)ccc3C2=O)C(=O)N1 (single isomer, unassigned) [Compound 123-B] | > 30000 nM | 0.1 nM |  | 1 nM | 69.6% |  |  |
| O=C1CCC(N2Cc3cc(O[C@@H]4CCCC[C@H]4N4CC(c5ccc(C(F)(F)F)nc5)C4)ccc3C2=O)C(=O)N1 (single isomer, unassigned) [Compound 125-B] | > 30000 nM | 83 nM | 50.9% | 65 nM |  |  |  |
| O=C1CCC(N2Cc3cc(O[C@H]4CCCC[C@@H]4N4CC(c5ccc(C(F)(F)F)nc5)C4)ccc3C2=O)C(=O)N1 (single isomer, unassigned) [Compound 126-B] | 86.6 nM | 6 nM | 94.8% | 7 nM |  | 39.5% |  |
| O=C1CCC(N2Cc3cc(O[C@H]4CCCC[C@@H]4N4CC(c5ccc(C(F)(F)F)nc5)C4)ccc3C2=O)C(=O)N1 (single isomer, unassigned) [Compound 127-B] | 63.3 nM | 6 nM |  | 26 nM | 95.4% |  | 39% |
| O=C1CCC(N2Cc3cc(O[C@@H]4CCCC[C@H]4N4CC(c5ccc(C(F)(F)F)cn5)C4)ccc3C2=O)C(=O)N1 (single isomer, unassigned) [Compound 128-B] | > 30000 nM | 18 nM | 24.2% | 11 nM |  |  |  |
| O=C1CCC(N2Cc3cc(O[C@@H]4CCCC[C@H]4N4CC(c5ccc(C(F)(F)F)cn5)C4)ccc3C2=O)C(=O)N1 (single isomer, unassigned) [Compound 129-B] | > 30000 nM | 20 nM |  | 38 nM | 42.4% |  |  |
| O=C1CCC(N2Cc3cc(O[C@H]4CCCC[C@@H]4N4CC(c5ccc(C(F)(F)F)cn5)C4)ccc3C2=O)C(=O)N1 (single isomer, unassigned) [Compound 130-B] | 44.1 nM | 5 nM | 94.8% | 10 nM |  | 37.4% |  |
